Data on one molecule can be found in patent US20200222418A1, “USE OF PHENOTHIAZINE DERIVATIVE IN THE TREATMENT OF INFECTION CAUSED BY BACTERIA CARRYING TYPE IV PILI” (priority 2017, published 2020).

Experiment [1] relates to Nm2C4.3 adhesion to human dermal microvascular endothelial cells (HDMECs). The experiment in a line: Adhesion of pretreated meningococci to endothelial cells. The following applies: bacteria pre-treated with 30 μM for 30 minutes. The class given is cell-based, Neisseria meningitidis. On the procedure: Nm2C4.3 grown in suspension were pretreated in the absence or in the presence of 30 μM Trifluoperazine for 30 minutes before adhesion to human dermal microvascular endothelial cells (HDMECs) for 30 minutes. Infection was allowed to proceed for further 30, 60 or 90 minutes before fixation and immunostaining using anti-Nm2C4.3 antibody and Alexa Fluor 633 Phalloidin. (A) Representative fluorescence microscopy showing bacterial colony (white dots) formed at the surface of the endothelial cells. (B) Quantification of the bacterial colonization was performed using Image J software.

The subject of experiment [2] is N. meningitidis 2C4.3 isogenic derivative mutant PilT. As to the kind of experiment: Aggregation of PilT mutant in suspension (phase-contrast video microscopy). The following applies: 50 μM. In kind it is cell-based, Neisseria meningitidis. The method, then: N. meningitidis 2C4.3 wild type strain and the isogenic derivative mutant PilT ([…]PiIT) were grown in liquid culture at 10^7 CFU/ml for 2 h to form bacterial aggregates and then treated with 50 μM Trifluoperazine. Time lapse phase-contrast video microscopy was performed to visualize the effect on bacterial aggregates over time. Images were taken at the indicated time points of the video.
(§1) N. meninigitidis 2C4.3 strain and the isogenic derivative mutant PilT, where the pilT gene was interrupted by an erythromycin-resistance cassette (Pujol et al., 1999), were grown in suspension in DMEM medium supplemented with 10% heat-inactivated fetal calf serum. PilT belongs to a highly conserved protein family homologous to AAA-type motor proteins and is proposed to cause the retraction of type IV pili by disassembling the pilin subunits at the base of the fiber (Morand et al., 2004). After 2 h of growth, Trifluoperazine (or control vehicle) was added at 50 μM for 20 min. The effect on bacterial aggregates were visualized over time using a phase-contrast microscope or the bacterial suspensions were fixed in 4% Paraformaldehyde for 10 min, centrifuged at 1000 rpm for 5 minutes and the bacterial pellets washed in PBS. After negative staining with 1% phosphotungstic acid, bacteria were analysed by transmission electron microscopy, using a JEOL 1011 microscope.

The test system of experiment [3] is N. meningitidis 2C4.3 wild type strain type IV pili. As to the kind of experiment: Surface expression of type IV pili by transmission electron microscopy, wild type. In kind it is cell-based, Neisseria meningitidis. The following applies: 50 μM Trifluoperazine for 30 minutes, wild type 2C4.3. On the procedure: N. meningitidis 2C4.3 wild type strain and the isogenic derivative mutant PilT ([…]PiIT) were grown in liquid culture […] electron microscopy. Arrows point at bundles of type IV pili expressed at the bacterial surface.
as §1, with “After 2 h of growth, Trifluoperazine (or control vehicle) was added at 50 μM for 20 min.” left out

For experiment [4], the system named is Enteropathogenic Escherichia coli (EPEC ΔescN-GFP) microcolonies on HBMEC. The experiment in a line: Dispersion of EPEC microcolonies on HBMEC. The following applies: 10 to 50 μM, 30 min. The class given is cell-based. On the procedure: Human […] microvascular endothelial cells (HBMEC) were infected with a GFP-expressing mutant Enteropathogenic Escherichia coli, which lacks the ATPase escN (EPEC ΔescN-GFP) for 2 h, then treated with Trifluoperazine (10-50 μM) for 30 minutes, before fixation and immunofluorescence analysis using Alexa Fluor 633 Phalloidin. (A) Representative fluorescence microscopy showing bacterial colony (white dots) formed at the surface of the endothelial cells. (B) Quantification of the bacterial colonization was performed using Image J software.
HBMEC were grown on Thermanox coverslips coated with gelatin 2% for 2 days to reach confluency. Cells were then infected for 1 h with a GFP-expressing mutant Enteropathogenic Escherichia coli (EPEC), which lacks the ATPase escN. This strain is unable to translocate effector proteins and is more prone to form pilus-dependent microcolony at the host cell surface (Jensen et al., 2015). Cells were then washed three times with medium to remove non-adherent bacteria and infection was pursued for 1 extra hour, to allow bacterial growth at the endothelial cell surface to form microcolonies. Trifluoperazine was then added to obtain final concentrations of 10, 20, 30 and 50 μM. After incubation for 30 minutes, cells were washed and fixed in 4% Paraformaldehyde for 10 min, washed three times with PBS. […] Quantification was done with ImageJ software (NIH). […]

Experiment [5] has as its system N. meningitidis 2C4.3 PilT mutant type IV pili. The experiment in a line: Surface expression of type IV pili by transmission electron microscopy, PilT mutant. The following applies: 50 μM. The class given is cell-based, Neisseria meningitidis. On the procedure: N. meningitidis 2C4.3 wild type strain and the isogenic derivative mutant PilT ([…]PiIT) were grown in liquid culture at 10^7 CFU/ml for 2 h to form bacterial aggregates and then treated with 50 μM Trifluoperazine for 15 minutes before analysis by transmission electron microscopy. Arrows point at bundles of type IV pili expressed at the bacterial surface.
as §1

On to `CN1CCN(CCCN2c3ccccc3Sc3ccc(C(F)(F)F)cc32)CC1` [Trifluoperazine], for which the “adhesion to and colony formation at the endothelial cell surface” value in experiment [1] is recorded as “did no longer adhere to and/or form bacterial colony”. Besides, the “effect on aggregation of PilT mutant strain” value in experiment [2] is “had no effect”. The “type IV pili expressed on bacterial surface” value in experiment [3] is “no longer observed”. In experiment [4], the “dispersion of EPEC microcolonies at the endothelial cell surface” value is recorded as “induced the dispersion of these microbial colonies in a dose-dependent manner”. Further, in experiment [5], the “surface expression of type IV pili of PilT mutant” value was “did not affect”.
